Measurements published in US20090299044A1 (priority 2006, published 2009).
pIC50: −log10 of the molar value. Bridge positions count the residues as written; N and C are the ends. Peptide text beside a SMILES is read from it.

Assays:
human Kv1.3 (CHO) = target: T1, human Kv1.3 (CHO) (Homo sapiens, UniProt P22001); experiment: cell-based
T1 construct: expressed in transfected cells; host or cells: CHO

human Kv1.1 (HEK293) = target: T2, human Kv1.1 (HEK293) (Homo sapiens, UniProt Q09470); experiment: cell-based
T2 construct: expressed in transfected cells; host or cells: HEK293
T2 sequence (Q09470 whole entry): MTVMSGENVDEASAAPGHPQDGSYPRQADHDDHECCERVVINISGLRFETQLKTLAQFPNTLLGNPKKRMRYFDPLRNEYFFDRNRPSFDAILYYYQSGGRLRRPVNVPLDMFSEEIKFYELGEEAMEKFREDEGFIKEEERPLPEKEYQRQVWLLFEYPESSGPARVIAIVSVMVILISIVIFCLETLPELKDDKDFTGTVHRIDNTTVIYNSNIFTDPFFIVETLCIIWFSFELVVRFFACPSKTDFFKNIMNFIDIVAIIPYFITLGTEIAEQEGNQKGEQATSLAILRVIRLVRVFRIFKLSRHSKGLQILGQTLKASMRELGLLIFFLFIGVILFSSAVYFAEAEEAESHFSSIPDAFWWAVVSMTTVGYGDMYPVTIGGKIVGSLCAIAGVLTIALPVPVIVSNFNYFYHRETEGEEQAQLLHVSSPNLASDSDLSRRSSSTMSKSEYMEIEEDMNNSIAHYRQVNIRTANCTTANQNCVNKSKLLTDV

T1 sequence (P22001 whole entry): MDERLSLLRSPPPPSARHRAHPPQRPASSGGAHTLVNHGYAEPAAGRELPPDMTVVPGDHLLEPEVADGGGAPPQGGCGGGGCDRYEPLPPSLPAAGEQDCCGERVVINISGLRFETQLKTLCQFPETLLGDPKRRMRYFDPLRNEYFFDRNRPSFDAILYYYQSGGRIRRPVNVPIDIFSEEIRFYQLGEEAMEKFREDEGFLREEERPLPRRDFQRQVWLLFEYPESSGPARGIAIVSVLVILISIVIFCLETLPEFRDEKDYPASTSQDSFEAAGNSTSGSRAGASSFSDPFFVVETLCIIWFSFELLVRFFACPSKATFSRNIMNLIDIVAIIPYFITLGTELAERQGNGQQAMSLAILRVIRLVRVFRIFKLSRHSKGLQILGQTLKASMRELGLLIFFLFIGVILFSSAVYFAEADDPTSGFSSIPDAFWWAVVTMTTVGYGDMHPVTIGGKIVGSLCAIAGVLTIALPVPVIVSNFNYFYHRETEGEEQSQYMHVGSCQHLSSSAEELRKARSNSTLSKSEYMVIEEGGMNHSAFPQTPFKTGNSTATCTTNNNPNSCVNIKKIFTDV

| Compound | pIC50 (human Kv1.3 (CHO)) | pIC50 (human Kv1.1 (HEK293)) |
| --- | --- | --- |
| CC[C@H](C)[C@@H]1NC(=O)[C@H](CCCCN)NC(=O)[C@@H](NC(=O)[C@H](CCCCN)NC(=O)[C@@H](NC(=O)[C@H](CC(N)=O)NC(=O)[C@H](CCC(=O)O)NC(=O)[C@@H](NC(=O)[C@@H](NC(=O)CN)C(C)C)[C@@H](C)CC)C(C)C)CSSC[C@@H]2NC(=O)[C@H](CCCCN)NC(=O)CNC(=O)[C@H](Cc3ccccc3)NC(=O)[C@H](CCCNC(=N)N)NC(=O)[C@H](CCSC)NC(=O)CNC(=O)[C@H](C)NC(=O)[C@H](CCCCN)NC(=O)[C@H](CCCCN)NC(=O)[C@@H]3CSSC[C@@H](C(=O)N[C@H](C(=O)N4CCC[C@H]4C(=O)N[C@@H](CCCCN)C(=O)O)[C@@H](C)O)NC(=O)[C@H](Cc4c[nH]cn4)NC(=O)[C@H](CSSC[C@H](NC(=O)[C@H](CCC(N)=O)NC(=O)[C@H](CCCNC(=N)N)NC(=O)[C@H](CO)NC1=O)C(=O)N[C@@H](CC(C)C)C(=O)N[C@@H](CCC(=O)O)C(=O)N1CCC[C@H]1C(=O)N3)NC(=O)[C@H](CCCCN)NC(=O)CNC(=O)[C@H](CC(N)=O)NC(=O)[C@H](CCSC)NC2=O [I4E] (H-GVIENVKCKISRQCLEPCKKAGMRFGKCMNGKCHCTPK-OH; disulfide 8-28, 14-33, 18-35) | 10.81 | 11.50 |
| CC[C@H](C)[C@H](NC(=O)[C@@H](NC(=O)CN)C(C)C)C(=O)N[C@H](C(=O)N[C@@H](CC(N)=O)C(=O)N[C@H](C(=O)N[C@@H](CCCCN)C(=O)N[C@H]1CSSC[C@@H]2NC(=O)[C@H](CCCCN)NC(=O)CNC(=O)[C@H](Cc3ccccc3)NC(=O)[C@H](CCCNC(=N)N)NC(=O)[C@H](CCSC)NC(=O)CNC(=O)[C@H](C)NC(=O)[C@H](CCCCN)NC(=O)[C@H](CCCCN)NC(=O)[C@@H]3CSSC[C@@H](C(=O)N[C@H](C(=O)N4CCC[C@H]4C(=O)N[C@@H](CCCCN)C(=O)O)[C@@H](C)O)NC(=O)[C@H](Cc4c[nH]cn4)NC(=O)[C@H](CSSC[C@H](NC(=O)[C@H](CCC(N)=O)NC(=O)[C@H](CCCNC(=N)N)NC(=O)[C@H](CO)NC(=O)[C@H](CCC(=O)O)NC(=O)[C@H](CCCCN)NC1=O)C(=O)N[C@@H](CC(C)C)C(=O)N[C@@H](CCC(=O)O)C(=O)N1CCC[C@H]1C(=O)N3)NC(=O)[C@H](CCCCN)NC(=O)CNC(=O)[C@H](CC(N)=O)NC(=O)[C@H](CCSC)NC2=O)C(C)C)[C@@H](C)CC [I10E] (H-GVIINVKCKESRQCLEPCKKAGMRFGKCMNGKCHCTPK-OH; disulfide 8-28, 14-33, 18-35) | 9.92 | 10.47 |
| CC[C@H](C)[C@@H]1NC(=O)[C@H](CCCCN)NC(=O)[C@@H](NC(=O)[C@H](CCCCN)NC(=O)[C@@H](NC(=O)[C@H](CC(N)=O)NC(=O)[C@@H](NC(=O)[C@@H](NC(=O)[C@@H](NC(=O)CN)C(C)C)[C@@H](C)CC)[C@@H](C)CC)C(C)C)CSSC[C@@H]2NC(=O)[C@H](CCCCN)NC(=O)CNC(=O)[C@H](Cc3ccccc3)NC(=O)[C@H](CCCNC(=N)N)NC(=O)[C@H](CCSC)NC(=O)CNC(=O)[C@H](C)NC(=O)[C@H](CCCCN)NC(=O)[C@H](CCCCN)NC(=O)[C@@H]3CSSC[C@@H](C(=O)N[C@H](C(=O)N4CCC[C@H]4C(=O)N[C@@H](CCCCN)C(=O)O)[C@@H](C)O)NC(=O)[C@H](Cc4c[nH]cn4)NC(=O)[C@H](CSSC[C@H](NC(=O)[C@H](CCCNC(=N)N)NC(=O)[C@H](CCCNC(=N)N)NC(=O)[C@H](CO)NC1=O)C(=O)N[C@@H](CC(C)C)C(=O)N[C@@H](CCC(=O)O)C(=O)N1CCC[C@H]1C(=O)N3)NC(=O)[C@H](CCCCN)NC(=O)CNC(=O)[C@H](CC(N)=O)NC(=O)[C@H](CCSC)NC2=O [Q13R] (H-GVIINVKCKISRRCLEPCKKAGMRFGKCMNGKCHCTPK-OH; disulfide 8-28, 14-33, 18-35) | 10.81 | > 11.82 |
